Experimental data: patent US6114537A, “Process for scavenging thiols” (Apotex Inc., priority 1997, dated 2000)

Assays:
Cathepsin L = Cathepsin L (Homo sapiens, UniProt P07711); assay: Inhibition of Cathepsin L, enzyme assay and kinetic measurements; assay type: biochemical; conditions: for kinact/KI: approximates kon, read-out: kabs /[inh] (cathepsin L); for inhibition at 5 µM: 5 μM [inhibitor]
Source text: (§1) Inhibition of Cathepsin B, Cathepsin L and Papain by 1,2,4-thiadiazoles and 1,2,4-thiadiazole[4,5-a]benzimidazole derivatives: Enzyme Assays and Kinetic Measurements
(§2) Conditions for the above experiments can be found in the following references: Menard R. et al., Biochemistry 1990, 29, 6706-6713; Fox T. et al., Biochemistry 1992, 31, 12571-12576; Cannona E. et al., Biochemistry 1996, 35, 8149-8157. A typical experiment consisted of choosing an inhibitor concentration such that maximum inhibition could be achieved in less than two hours, monitoring the complete progress curve (i.e. fluorescence vs time), and analyzing the data. The analysis yield two parameters: the % inhibition once steady state was re ached, and a rate constant which represents the rate at which this steady state is reached. Typically, the enzyme activity decreases with time until the maximum level of inhibition is reached (i.e. steady state) where the enzyme activity remains constant. Since significant levels of activity could still be detected at steady state (i.e. inhibition is not complete), the data was fitted to equation (1), which is normally used for slow-binding reversible inhibitors. [formula]
(§3) % inhibition=(1-v1 /vo).100 (2)
(§4) In this equation, [P] represents the concentration of product (obtained from the flourescene readings), kabs is the first order rate constant to reach steady state, vo is the initial rate which corresponds to the rate in the absence of the inhibitor, and vi is the rate of the inhibited enzyme at steady state. The % inhibition was obtained by using equation (2), where the rate measured in the absence of the inhibitor was used for vo. An example of a simple mechanism for such a process is given below: [formula] For this mechanism, the value of kabs determined experimentally would correspond to:
(§5) The value of kabs varies with inhibitor concentration. Often koff is much slower than kon [inh] and kabs /[inh] can be used to approximate kon. This approach is used in this study and the results are shown in below: […]

Cathepsin B = Cathepsin B (Rattus norvegicus, UniProt P00787); assay: Inhibition of Cathepsin B, enzyme assay and kinetic measurements; assay type: biochemical; conditions: for kinact/KI: approximates kon, read-out: kabs /[inh] (cathepsin B); for inhibition at 200 µM: 200 μM [inhibitor]
Source text: as §1, §2, §3, §4, §5

Papain = target: T1, Papain (Carica papaya, UniProt P00784); assay: Inhibition of Papain, enzyme assay and kinetic measurements; assay type: biochemical; conditions: for kinact/KI: approximates kon, read-out: kabs /[inh] (papain); for inhibition at 200 µM: 200 μM [inhibitor] (printed 200 μm); for inhibition at 1 µM: 1 μM [inhibitor]
T1 sequence (P00784 134-345): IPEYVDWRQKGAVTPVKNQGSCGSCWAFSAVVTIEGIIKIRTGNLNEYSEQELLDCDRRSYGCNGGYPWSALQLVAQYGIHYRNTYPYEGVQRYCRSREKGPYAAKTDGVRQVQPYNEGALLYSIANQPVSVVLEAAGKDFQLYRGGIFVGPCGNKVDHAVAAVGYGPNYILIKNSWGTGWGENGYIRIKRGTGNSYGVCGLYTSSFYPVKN
Source text: as §1, §2, §3, §4, §5

[1] = Reaction with benzyl mercaptan; assay type: physicochemical; conditions: organic solvent such as methanol
Source text: The chemical reactivity of monocyclic 1,2,4-thiadiazole as thiol trapping agent depends on the substituent at the 3 and 5 position of the ring system.

hog H^+ /K^+ ATPase = target: T2, hog H^+ /K^+ ATPase (Sus scrofa, UniProt P19156); assay: Gastric ATPase enzyme inhibition assay; assay type: biochemical; conditions: hog gastric vesicles, K+ stimulated ATP hydrolysis
T2 construct: Potassium stimulated ATP hydrolysis using hog gastric (GI) vesicles; from tissue; host or cells: hog gastric (GI) vesicles
Method: Gastric ATPase enzyme inhibition assay
The enzyme used is the hog H^+ /K^+ ATPase (Sachs, et al. J. Biol. Chem. 251:7690-7698, 1976). A modified procedure reported by Yoda A. and Hokin, L.E., Biochem. Res. Commun., 1970, 800-884 is used. Potassium stimulated ATP hydrolysis using hog gastric (GI) vesicles, a preparation enriched in H^+ /K^+ ATPase, is measured.
The difference between activity in the presence of Mg^++ and presence of Mg^++ and K^+ 0 is taken as enzyme activity. Nigericin, a K^+ ionophore, is also present in the (+)K^+ incubation mixture to provide access of K^+ to the vesicle interior. Hydrolysis activity is measured by quantitative analysis of a phosphomolybdate complex. […] The optical density of many drugs used for the inhibition of H^+ /K^+ ATPase interfere in this wavelength. Therefore, a modification of the as say was used wherein the phosphomolybdate complex was reduced with Fiske and Subbarow reducer (1-amino-2-naphthol-4-[…] plus sodium sulfite). This shifts the optical density from 3 20 nm for the oxidized phosphomolybdate complex to 600-700 nm. This modification has the added advantage of providing a means of automated assay when multiple samples being tested. In this modification, the optical density of the assay mixtures was read at 700 nm.
Basal Mg^++ levels are measured in […], 2 mM Na2 ATP, 40 mM Pipes-tris, pH 6.10. 20 mM KCl and 10 μg/ml nigericin is added to determine the extent of stimulation by K^+. Test compounds or vehicle are then added. Enzyme (10 μg/ml) is then added to initiate the reaction. The final volume is 200 μl. The protocol for these assays is shown below.
Zero blanks (water controls) and phosphate standards (200 μl) are added appropriate for assays used: […], 0.050, 0.075, 0.1 . . . 0.5 mM standards. The order of the addition of reagents generally follows as described above. However, it may be more preferable to add either enzyme before ATP if it is important to provide time for pre-cubation with test compounds. Time additions of the last reagent are used to provide a uniform assay time.
The reaction is run for 30 min. to 1 hour. The re action is stopped by addition of 50 μl of a solution prepared by adding 4 volumes of 2.5 M sulfric acid plus one volume of 1.25% (w/v) Fiske and Subbarow reagent. Colour is developed at room temperature for ten minutes and optical density at 700 nm is determined. In the event that a white precipitate forms, the clear supernatants (after mixing and setting) can be used for the determination of enzyme activity.

[2] = Acid stability in 6 molar hydrochloric acid; assay type: physicochemical; conditions: room temperature
Method: Acid stability of 7-methoxy-3-[(4-methoxy-3,5-dimethyl-2-pyridyl)oxomethyl]-1,2,4-thiadiazolo[4,5-a]benzimidazole.
To examine acid stability of the captioned compound, the compound was dissolved in a minimum volume of methanol and the resulting solution was added to a 6 molar solution of hydrochloric acid.

[3] = steady state, 200 μM [inhibitor] (printed 200 μm)
[4] = steady state, 50 μM [inhibitor]

Sequence of Cathepsin B (P00787 80-339): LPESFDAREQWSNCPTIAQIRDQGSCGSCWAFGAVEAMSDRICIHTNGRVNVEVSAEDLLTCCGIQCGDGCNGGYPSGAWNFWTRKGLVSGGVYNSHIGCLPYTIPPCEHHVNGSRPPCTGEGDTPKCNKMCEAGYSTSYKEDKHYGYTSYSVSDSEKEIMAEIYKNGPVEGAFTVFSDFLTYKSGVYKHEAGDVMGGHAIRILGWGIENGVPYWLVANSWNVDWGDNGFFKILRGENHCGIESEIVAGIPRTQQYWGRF
T2 sequence (P19156 2-1034 limits assumed): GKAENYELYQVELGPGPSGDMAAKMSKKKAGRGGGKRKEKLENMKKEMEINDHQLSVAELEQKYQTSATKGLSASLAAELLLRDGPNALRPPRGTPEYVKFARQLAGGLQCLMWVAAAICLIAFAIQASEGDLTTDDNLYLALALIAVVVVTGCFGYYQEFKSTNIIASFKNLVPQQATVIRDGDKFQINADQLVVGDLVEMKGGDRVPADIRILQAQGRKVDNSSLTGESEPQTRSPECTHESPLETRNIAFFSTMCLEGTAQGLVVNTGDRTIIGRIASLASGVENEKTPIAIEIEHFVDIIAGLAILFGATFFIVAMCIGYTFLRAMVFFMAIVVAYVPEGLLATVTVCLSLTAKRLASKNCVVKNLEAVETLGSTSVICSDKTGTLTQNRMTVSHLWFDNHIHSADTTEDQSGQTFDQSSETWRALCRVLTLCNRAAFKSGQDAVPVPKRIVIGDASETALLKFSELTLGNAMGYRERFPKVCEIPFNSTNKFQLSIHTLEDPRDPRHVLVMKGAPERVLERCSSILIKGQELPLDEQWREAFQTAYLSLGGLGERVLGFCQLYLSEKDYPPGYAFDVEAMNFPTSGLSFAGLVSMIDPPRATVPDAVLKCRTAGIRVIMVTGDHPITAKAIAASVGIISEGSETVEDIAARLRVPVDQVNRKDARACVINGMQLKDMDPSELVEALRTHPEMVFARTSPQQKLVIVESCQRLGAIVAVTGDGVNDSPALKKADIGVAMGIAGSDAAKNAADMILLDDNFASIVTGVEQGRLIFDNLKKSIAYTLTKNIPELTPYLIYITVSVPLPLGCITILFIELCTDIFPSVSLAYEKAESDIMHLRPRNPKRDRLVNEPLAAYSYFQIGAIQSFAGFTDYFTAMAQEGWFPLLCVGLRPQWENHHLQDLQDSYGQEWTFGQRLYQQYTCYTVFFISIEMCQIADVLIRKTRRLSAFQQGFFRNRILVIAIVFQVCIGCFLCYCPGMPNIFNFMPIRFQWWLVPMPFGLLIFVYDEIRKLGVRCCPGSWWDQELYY
T2 sequence (P18434 whole entry partner): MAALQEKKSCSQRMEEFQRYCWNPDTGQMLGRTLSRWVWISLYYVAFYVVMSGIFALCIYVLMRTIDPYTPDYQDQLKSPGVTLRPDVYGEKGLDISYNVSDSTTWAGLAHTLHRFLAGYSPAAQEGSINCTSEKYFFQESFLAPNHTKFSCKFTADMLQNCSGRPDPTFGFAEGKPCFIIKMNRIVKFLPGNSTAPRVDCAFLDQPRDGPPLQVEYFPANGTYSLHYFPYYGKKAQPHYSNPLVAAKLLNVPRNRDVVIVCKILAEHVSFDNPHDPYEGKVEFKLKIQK
Sequence of Cathepsin L (P07711 114-333): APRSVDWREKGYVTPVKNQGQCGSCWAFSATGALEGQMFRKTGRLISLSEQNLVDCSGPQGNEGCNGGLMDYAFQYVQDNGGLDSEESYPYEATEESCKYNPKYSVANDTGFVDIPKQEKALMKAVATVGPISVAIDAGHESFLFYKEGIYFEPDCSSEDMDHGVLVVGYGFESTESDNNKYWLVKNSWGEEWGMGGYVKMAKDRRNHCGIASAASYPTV

With COC(=O)[C@@H]1CCCN1c1nsc2nc3ccccc3n12 [1,2,4-thiadiazolo [4,5-a]benzimidazol-3-yl-L-proline methyl ester] the kinact/KI (Cathepsin L) was 1050 M⁻¹ s⁻¹, the inhibition at 10 µM (Cathepsin L; steady state, 10 μM [inhibitor]) was 99% and the kinact/KI (Cathepsin B) was 626 M⁻¹ s⁻¹. For the same molecule, the inhibition at 10 µM (Cathepsin B; steady state, 10 μM [inhibitor], % sign not given) was 88%, the kinact/KI (Papain) was 356 M⁻¹ s⁻¹ and the inhibition at 0.26 µM (Papain; steady state, 0.26 μM [inhibitor]) was 97%.
For c1cncc(-c2nsc(-c3cccnc3)n2)c1 [3,5-di(3-pyridyl)-1,2,4-thiadiazole], the “reaction with benzyl mercaptan” value [1] was “do not react with benzyl mercaptan”.
Molecule c1ccc2c(c1)nc1snc(N3CCNCC3)n12 [3-(1-piperazinyl)-1,2,4-thiadiazolo[4,5-a]benzimidazole] has an EC50 (hog H^+ /K^+ ATPase) of 1000 nM.
Molecule CN1CCN(c2nsc3nc4ccccc4n23)CC1 [3-(4-methyl-1-piperazinyl)-1,2,4-thiadiazolo-[4,5-a]benzimidazole] has a kinact/KI (Cathepsin L) of 24 M⁻¹ s⁻¹, an inhibition at 200 µM (Cathepsin L; [3]) of 98% and a kinact/KI (Cathepsin B) of 19 M⁻¹ s⁻¹. For the same molecule, the inhibition at 200 µM (Cathepsin B; steady state) was 68%, the kinact/KI (Papain) was 28 M⁻¹ s⁻¹ and the inhibition at 200 µM (Papain; steady state) was 99%. For the same molecule, the EC50 (hog H^+ /K^+ ATPase) was 2000 nM.
c1ccc2c(c1)nc1snc(CN3CCOCC3)n12 [3-(morpholinomethyl)-1,2,4-thiadiazolo[4,5-a]benzimidazole] gave a kinact/KI (Cathepsin L) of 7 M⁻¹ s⁻¹, an inhibition at 200 µM (Cathepsin L; steady state, 200 μM [inhibitor], % sign not given) of 80% and a kinact/KI (Cathepsin B) of 8 M⁻¹ s⁻¹. The inhibition at 200 µM (Cathepsin B; steady state) was 60%, the kinact/KI (Papain) was 7 M⁻¹ s⁻¹ and the inhibition at 200 µM (Papain; steady state) was 92%. For the same molecule, the EC50 (hog H^+ /K^+ ATPase) was 200 nM.
Work on c1ccc2c(c1)nc1snc(OCCN3CCOCC3)n12 [3-[2-(N-morpholino)ethoxy]-1,2,4-thiadiazolo[4,5-a]benzimidazole] yielded a kinact/KI (Cathepsin L) of 356 M⁻¹ s⁻¹, an inhibition at 25 µM (Cathepsin L; steady state, 25 μM [inhibitor]) of 99% and a kinact/KI (Cathepsin B) of 107 M⁻¹ s⁻¹. For the same molecule, the inhibition at 50 µM (Cathepsin B; [4]) was 91%, the kinact/KI (Papain) was 5560 M⁻¹ s⁻¹ and the inhibition at 0.66 µM (Papain; steady state, 0.66 μM [inhibitor]) was 99.6%.
For c1ccc2c(c1)nc1snc(NCCN3CCOCC3)n12 [3-[2-(N-morpholino)ethylamino]l,2,4-thiadiazolo-[4,5-a]benzimidazole], the EC50 (hog H^+ /K^+ ATPase) was 200 nM.
For O=C(c1ccccn1)c1nsc2nc3ccccc3n12 [3-[oxo(2-pyridyl)methyl]-1,2,4-thiadiazolo [4,5-a]benzimidazole], the kinact/KI (Cathepsin L) was 68 M⁻¹ s⁻¹, the inhibition at 200 µM (Cathepsin L; [3]) was 99% and the kinact/KI (Cathepsin B) was 15 M⁻¹ s⁻¹. For the same molecule, the inhibition at 200 µM (Cathepsin B; steady state) was 58%, the kinact/KI (Papain) was 2480 M⁻¹ s⁻¹ and the inhibition at 1 µM (Papain; steady state) was 79%.
With COc1nsc(N)n1 [3-methoxy-5-amino-1,2,4-thiadiazoles, 5-amino-3-methoxy-1,2,4-thiadiazole] the “reaction with benzyl mercaptan” value [1] was “reacted with benzyl mercaptan”.
For Cc1nsc(NCc2ccccc2)n1 [3-methyl-5-benzylamino-1,2,4-thiadiazole], the “reaction with benzyl mercaptan” value [1] was “do not react with benzyl mercaptan”.
With Cc1nsc(N(Cc2ccccc2)Cc2ccccc2)n1 [3-methyl-5-dibenzylamino-1,2,4-thiadiazole] the “reaction with benzyl mercaptan” value [1] was “do not react with benzyl mercaptan”.
With COc1nsc(NC(=O)N[C@@H](CC(C)C)C(=O)NCCC(C)C)n1 [Example T11AA] the kinact/KI (Cathepsin L) was 3480 M⁻¹ s⁻¹, the inhibition at 5 µM (Cathepsin L; steady state) was 99% and the kinact/KI (Cathepsin B) was 1060 M⁻¹ s⁻¹. For the same molecule, the inhibition at 5 µM (Cathepsin B; steady state, 5 μM [inhibitor]) was 56%, the kinact/KI (Papain) was 3900 M⁻¹ s⁻¹ and the inhibition at 1 µM (Papain; steady state) was 97%.
For COc1ccc2[nH]c([S+]([O-])Cc3ncc(C)c(OC)c3C)nc2c1 (stereo not shown) [Omeprazole, reference compound], the acid stability [2] was “complete decomposition in a few minutes”.
For O=C(O)c1nsc2nc3ccccc3n12 [sodium 3-carboxylato-1,2,4-thiadiazolo[4,5-albenzimidazole], the kinact/KI (Cathepsin L) was 184 M⁻¹ s⁻¹, the inhibition at 50 µM (Cathepsin L; [4]) was 98% and the kinact/KI (Cathepsin B) was 34 M⁻¹ s⁻¹. The inhibition at 200 µM (Cathepsin B; steady state) was 85%, the kinact/KI (Papain) was 131 M⁻¹ s⁻¹ and the inhibition at 200 µM (Papain; steady state) was 99.6%.
Molecule CC(C)CCNC(=O)[C@H](CC(C)C)NC(=O)c1nsc2nc3ccccc3n12 [{1,2,4-thiadiazolo[4,5-a]benzimidazol-3-yl}-carbonyl-L-leucyl isoamylamide] has a kinact/KI (Cathepsin L) of 307 M⁻¹ s⁻¹, an inhibition at 5 µM (Cathepsin L; steady state) of 93% and a kinact/KI (Papain) of 500 M⁻¹ s⁻¹. It also gave an inhibition at 5 µM (Papain; steady state, 5 μM [inhibitor]) of 95%.
